Experiments:
BT3313 = biological target: T1, BT3313 (Bacteroides thetaiotaomicron, UniProt Q8A2J2); test: isothermal titration calorimetry; format: binding; settings: 50 mM Na-Hepes, pH 7.5, 25 °C
T1 construct: gene BT_3313; signal peptide (lipoprotein) removed; N-terminal hexahistidine tag; pET28 derivative, E. coli
T1 sequence (Q8A2J2 20-667): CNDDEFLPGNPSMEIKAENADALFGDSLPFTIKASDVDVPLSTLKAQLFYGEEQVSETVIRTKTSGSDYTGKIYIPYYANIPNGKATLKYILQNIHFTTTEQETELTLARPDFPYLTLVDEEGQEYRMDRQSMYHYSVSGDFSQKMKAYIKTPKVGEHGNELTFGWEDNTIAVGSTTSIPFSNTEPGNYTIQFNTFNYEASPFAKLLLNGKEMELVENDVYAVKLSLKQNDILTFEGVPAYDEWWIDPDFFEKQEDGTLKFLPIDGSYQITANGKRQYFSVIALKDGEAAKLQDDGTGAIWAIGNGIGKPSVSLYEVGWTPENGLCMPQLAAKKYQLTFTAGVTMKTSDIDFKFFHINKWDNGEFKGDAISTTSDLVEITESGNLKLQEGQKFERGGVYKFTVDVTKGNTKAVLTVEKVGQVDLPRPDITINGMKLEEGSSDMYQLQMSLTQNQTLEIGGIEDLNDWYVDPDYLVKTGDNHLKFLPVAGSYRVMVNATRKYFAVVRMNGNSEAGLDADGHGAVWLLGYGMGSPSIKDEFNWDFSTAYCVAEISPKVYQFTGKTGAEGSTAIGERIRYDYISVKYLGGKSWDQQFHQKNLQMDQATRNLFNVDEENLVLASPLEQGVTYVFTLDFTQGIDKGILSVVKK
Text: isothermal titration calorimetry on BT3313

BT3311 = biological target: T2, BT3311 (Bacteroides thetaiotaomicron, UniProt Q8A2J4); test: isothermal titration calorimetry; format: binding; settings: 50 mM Na-Hepes, pH 7.5, 25 °C
T2 construct: gene BT_3311; signal peptide (lipoprotein) removed; N-terminal hexahistidine tag; pET28 derivative, E. coli
T2 sequence (Q8A2J4 22-506): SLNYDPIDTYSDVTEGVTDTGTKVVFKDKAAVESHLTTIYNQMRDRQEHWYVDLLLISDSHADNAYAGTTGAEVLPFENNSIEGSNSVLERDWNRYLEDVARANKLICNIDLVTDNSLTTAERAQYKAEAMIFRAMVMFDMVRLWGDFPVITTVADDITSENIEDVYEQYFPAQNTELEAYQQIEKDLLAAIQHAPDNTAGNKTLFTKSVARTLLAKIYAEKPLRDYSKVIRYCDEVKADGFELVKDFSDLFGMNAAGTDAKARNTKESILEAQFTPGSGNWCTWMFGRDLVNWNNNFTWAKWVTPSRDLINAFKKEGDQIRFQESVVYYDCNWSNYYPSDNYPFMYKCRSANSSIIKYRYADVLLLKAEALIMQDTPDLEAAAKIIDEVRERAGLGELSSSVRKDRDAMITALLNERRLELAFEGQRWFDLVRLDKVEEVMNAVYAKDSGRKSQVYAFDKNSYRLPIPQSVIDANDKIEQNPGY
Text: isothermal titration calorimetry on BT3311

BT3312 = biological target: T3, BT3312 (Bacteroides thetaiotaomicron, UniProt Q8A2J3); test: glucose release from […]-β-glucotriose (D-glucose detection kit); also crystal structure, […] Å; format: biochemical
T3 construct: gene BT_3312; signal peptide (lipoprotein) removed; N-terminal hexahistidine tag; pET28 derivative, E. coli Tuner; residues 82-427 form the TIM barrel domain
T3 sequence (Q8A2J3 22-496): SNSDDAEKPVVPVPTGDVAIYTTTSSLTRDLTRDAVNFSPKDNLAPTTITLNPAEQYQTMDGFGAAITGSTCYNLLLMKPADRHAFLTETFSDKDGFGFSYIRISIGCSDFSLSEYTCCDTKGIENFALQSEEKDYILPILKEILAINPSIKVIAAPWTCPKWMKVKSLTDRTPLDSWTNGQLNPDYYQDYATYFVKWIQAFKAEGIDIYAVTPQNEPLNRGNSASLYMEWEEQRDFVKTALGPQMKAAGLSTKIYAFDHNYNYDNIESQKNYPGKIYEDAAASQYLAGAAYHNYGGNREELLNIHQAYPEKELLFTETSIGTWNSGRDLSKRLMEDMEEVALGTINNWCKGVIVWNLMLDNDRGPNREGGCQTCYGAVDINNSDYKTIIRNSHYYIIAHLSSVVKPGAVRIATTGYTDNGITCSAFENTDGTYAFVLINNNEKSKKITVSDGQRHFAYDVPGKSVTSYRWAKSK

| Ka (BT3313) | Ka (BT3311) | Ki (BT3312) [µM] | Structure (SMILES) |
| --- | --- | --- | --- |
| 8.0 × 10^3 ± 0.7 | 1.6 × 10^4 ± 0.1 |  | OC[C@H]1O[C@@H](OC[C@H]2O[C@@H](OC[C@H]3O[C@@H](OC[C@H]4O[C@@H](OC[C@H]5O[C@@H](OC[C@H]6OC(O)[C@H](O)[C@@H](O)[C@@H]6O)[C@H](O)[C@@H](O)[C@@H]5O)[C@H](O)[C@@H](O)[C@@H]4O)[C@H](O)[C@@H](O)[C@@H]3O)[C@H](O)[C@@H](O)[C@@H]2O)[C@H](O)[C@@H](O)[C@@H]1O (stereo partly drawn) [1,6-β-Glucohexaose] |
| 1.5 × 10^4 ± 0.2 | 2.1 × 10^4 ± 0.1 |  | OC[C@H]1O[C@@H](OC[C@H]2O[C@@H](OC[C@H]3O[C@@H](OC[C@H]4O[C@@H](OC[C@H]5O[C@@H](OC[C@H]6O[C@@H](OC[C@H]7OC(O)[C@H](O)[C@@H](O)[C@@H]7O)[C@H](O)[C@@H](O)[C@@H]6O)[C@H](O)[C@@H](O)[C@@H]5O)[C@H](O)[C@@H](O)[C@@H]4O)[C@H](O)[C@@H](O)[C@@H]3O)[C@H](O)[C@@H](O)[C@@H]2O)[C@H](O)[C@@H](O)[C@@H]1O (stereo partly drawn) [1,6-β-Glucoheptaose] |
|  |  | ~1000 | OC[C@H]1O[C@@H](OC[C@H]2NC[C@H](O)[C@@H](O)[C@@H]2O)[C@H](O)[C@@H](O)[C@@H]1O [compound 5, β-D-Glucopyranosyl-1,6-deoxynojirimycin] |
| 3.6 × 10^3 ± 0.2 | 8.3 × 10^3 ± 0.3 |  | OC[C@H]1O[C@@H](OC[C@H]2O[C@@H](OC[C@H]3O[C@@H](OC[C@H]4O[C@@H](OC[C@H]5OC(O)[C@H](O)[C@@H](O)[C@@H]5O)[C@H](O)[C@@H](O)[C@@H]4O)[C@H](O)[C@@H](O)[C@@H]3O)[C@H](O)[C@@H](O)[C@@H]2O)[C@H](O)[C@@H](O)[C@@H]1O (stereo partly drawn) [1,6-β-Glucopentaose] |
